Article PMC10892409, “Exploring Ocimum basilicum’s Secondary Metabolites: Inhibition and Molecular Docking against Rhynchophorus ferrugineus for Optimal Action” (Plants, 2024)
≈ marks a conversion by molar mass, not a printed value. Where “and” joins values, the source holds several entries; their conditions need not be identical. Identical values can stand only once. Like-named read-outs stand apart in the source and are kept apart here.

Columns and labels:
[1] = system: AChE; assay: In vitro AChE inhibition, larval homogenate (Ellman); assay type: biochemical, Rhynchophorus ferrugineus; settings: fourth-instar larvae preparation
Experimental: (§1) The R. ferrugineus were homogenized larvae in a buffer (sodium phosphate, 40 mM, and pH 7.4); then, sodium chloride (10 mM dissolved in 1% (w/v) triton X-100) was added. During centrifugation (Sigma 3–30 KS), the homogenate was chilled to 4 °C and spun at a speed of 5000 rpm (20 min). The supernatant was either immediately put into action for an enzymatic test or frozen and kept at […] for later use. Each test was repeated three times. The protein content was determined using the same protocol employed by Lowry with modification using protein extract (100 µL) combined with an alkaline copper solution and a Folin–Ciocalteu phenol reagent (2 mL and 200 µL, respectively). The intensity of the resulting blue hue was evaluated during 30 min of incubation at 25 °C. Using an ELISA plate reader and a BSA standard curve, we could calculate the protein concentration by analyzing the absorbance at 600 nm (Multiskan SkyHigh Microplate Spectrophotometer, Thermo Fisher Scientific, Waltham, MA, USA).
(§2) The enzyme AChE was assessed using a substrate of acetylthiocholine iodide and evaluated using 5,5′-dithiobis [2-nitrbenzoic acid] (DTNB), according to [94]. Each well contained a sodium phosphate buffer (140 µL) (pH: 8.0; 100 mM), DTNB (10 µL), extract (20 µL)/components at 1, 10, 50, 100, and 1000 µg/mL in DMSO and underwent 15 min of incubation at 25 °C. Acetylthiocholine (ATCh) was added to start the reaction (10 µL). The ATCh enzymatic hydrolysis produced a 5-thio-2-nitrobenzoate anion as a color (yellow) that was detected by measuring its wavelength, i.e., 412 nm, thereby allowing the researchers to track the rate of ATCh hydrolysis (15 min). Each response was performed three times on a microplate and examined using an ELISA plate reader to determine the 412 nm absorbance of the combination (Multiskan SkyHigh Microplate Spectrophotometer). The AChE-specific activity was measured as OD412/mg protein.h. based on observing the effect of raising the quantities of all of these compounds during the tests on the inhibition results, and the inhibitory concentration (IC50) was calculated. Then, a computer algorithm was used to determine the IC50 values (Version 9.01 of GraphPad Prism by Inc., 2020, San Diego, CA, USA).

[2] = system: ACPs; assay: In vivo ACP inhibition in treated fourth-instar larvae; set-up: species or system Rhynchophorus ferrugineus; settings: fourth-instar larvae treated 24 h
Experimental: (§3) Activities of ACPs and ALPs were evaluated using a modified version of the Asakura technique. The ACP test required incubating 100 μL of crude enzyme in a buffer of 650 μL of sodium acetate (pH: 5.0; 50 mM with ACPs) or 250 μL of Tris–HCl (at 50 mM; pH: 8.0 with ALPs) and p-nitrophenyl phosphate (5.5 mM). For 30 min; the various mixes were kept at 37 °C for incubation. Thereafter, 500 μL of NaOH (0.5 N) stopped the reaction. Using an ELISA plate reader, we determined the mixture’s 415 nm absorbance value (Multiskan SkyHigh Microplate Spectrophotometer). The ACP- and ALP-specific activity was estimated as OD 415/mg protein·h.
(§4) Each enzyme’s in vivo impact was measured after treating larvae with an extract or pure chemicals. An inhibitor-free test combination served as a negative control. We determined the absorbance of the enzymes throughout a spectrum of wavelengths using a rapid reader for ELISA plates (Multiskan SkyHigh Microplate Spectrophotometer). Extracts and pure chemicals were used to treat R. ferrugineus larvae at previous serial concentrations, and their AChE, ACP, ALP, and GABA-T activity was tested in vivo using the methods outlined above. Larvae spent a day on leaf disks treated with chemicals or extract.

[3] = system: ACPs; assay: In vitro ACP inhibition, larval homogenate; assay type: biochemical, Rhynchophorus ferrugineus; settings: fourth-instar larvae preparation
Experimental: as §1, §3

[4] = system: ALPs; assay: In vivo ALP inhibition in treated fourth-instar larvae; set-up: species or system Rhynchophorus ferrugineus; settings: fourth-instar larvae treated 24 h
Experimental: as §3, §4

[5] = system: R. ferrugineus adults; assay: Antifeedant/insecticidal test on adults with treated sugarcane stem (probit LC50); assay type: in vivo, Rhynchophorus ferrugineus; settings: after 1 day of treatment, 95% confidence limits in brackets
Experimental: (§5) Over the course of 40 days, an O. basilicum cell suspension was cultivated in this investigation, and then the extract was obtained. […] Long segments of sugarcane stem were employed in the insect breeding lab at King Faisal University’s Research and Training Center to raise adult R. ferrugineus larvae. For this experiment, we used a topical application technique with larvae stored at 4 °C for five minutes to test the extract’s activity. Using a hand-operated micro-applicator (Burkard Manufacturing Co., Ltd., Hertfordshire, UK, collected using a […] micro-syringe), extracts at escalating ratios (10 µL) were injected into the dorsal surface of the larvae (Ito Corp.; MS-N50, Shizuoka, Japan). Five larvae per box in a series of three replicates were fed on sugarcane stem pieces measuring 10 cm in length. The LD50 was calculated by measuring the percentage of dead larvae at 24, 48, 72, and 96 h following a topical application. The antifeedant impact was determined in adults by giving them 10 cm sugarcane stem segments cut in half longitudinally. Long strips of sugarcane stem (32 cm^2) were immersed in the previous serial extract and compound concentration (10 mL) for ten seconds before they were dried in ambient air using a plastic box. Each box included a new pair of larvae (a male and a female). Ten sets of each treatment were performed. Data on how well the subjects ate were evaluated at 24, 48, 72, and 96 h.
(§6) The tissue culture parameters were calculated quantitatively from three independent sets of samples, and the mean SD was used to describe the findings. Toxicity parameters were determined quantitatively using a 10-replicate sample, and means and standard deviations were used to present the data. The median dosage obtained from a dose–response regression was used to calculate the LC50 value. By analyzing the comparative growth rate vs. the crude extract logarithm using least squares regression, the range of LC50 was calculated with 95% confidence. A simple variance study was performed on the increased weight and enzymatic activity data (ANOVA). The distinction between the means was accomplished using the Student–Newman–Keuls (SNK) test. Additionally, SPSS version 25 was used to find p < 0.05 significant deviations from the mean.

[6] = system: fourth-instar larvae of R. ferrugineus; assay: Topical application (contact) to fourth-instar larvae (probit LD50); assay type: in vivo, Rhynchophorus ferrugineus; settings: after 1 day of treatment, 95% confidence limits in brackets
Experimental: as §5, §6

[7] = system: AChE; assay: In vivo AChE inhibition in treated fourth-instar larvae; set-up: species or system Rhynchophorus ferrugineus; settings: fourth-instar larvae treated 24 h
Experimental: as §2, §4

[8] = system: ALPs; assay: In vitro ALP inhibition, larval homogenate; assay type: biochemical, Rhynchophorus ferrugineus; settings: for IC50 ALPs in vitro: fourth-instar larvae preparation
Experimental: as §1, §3

[9] = target: T1, GABA-T (Rhynchophorus ferrugineus, UniProt A0A834I2E4); assay: In vitro GABA-T inhibition, larval homogenate; assay type: biochemical; settings: fourth-instar larvae preparation, listed as salvianolic acid B
Experimental: The R. ferrugineus were homogenized larvae in a buffer (sodium phosphate, 40 mM, and pH 7.4); then, sodium chloride (10 mM dissolved in 1% (w/v) triton X-100) was added. During centrifugation (Sigma 3–30 KS), the homogenate was chilled to 4 °C and spun at a speed of 5000 rpm (20 min). The supernatant was either immediately put into action for an enzymatic test or frozen and kept at 20 °C for later use. […] The protein content was determined using the same protocol employed by Lowry with modification [93] using protein extract (100 µL) combined with an alkaline copper solution and a Folin–Ciocalteu phenol reagent (2 mL and 200 µL, respectively). The intensity of the resulting blue hue was evaluated during 30 min of incubation at 25 °C. Using an ELISA plate reader and a BSA standard curve, we could calculate the protein concentration by analyzing the absorbance at 600 nm (Multiskan SkyHigh Microplate Spectrophotometer, Thermo Fisher Scientific, Waltham, MA, USA).
The GABA-T activity was assessed with a modified version of the method published by [96]. The enzyme crude extract (25 μL) added to a solution included Tris-HCl, α-ketoglutarate, 2-mercaptoethanol, β-NAD, and GABA (50, 2, 20, and 3, respectively) at a volume of 1525 μL. […]

[10] = target: T1, GABA-T; assay: In vivo GABA-T inhibition in treated fourth-instar larvae; settings: fourth-instar larvae treated 24 h
Experimental: The enzyme crude extract (25 μL) added to a solution included Tris-HCl, α-ketoglutarate, 2-mercaptoethanol, β-NAD, and GABA (50, 2, 20, and 3, respectively) at a volume of 1525 μL. Finally, 30 μL of tritonx100 ((1%, (v/v)) was added to the prior combination. We used 30 min of incubation at between 25 and 30 °C. Additionally, we used an ELISA plate reader to determine the absorbance of the combination at 340 nm (Multiskan SkyHigh Microplate Spectrophotometer). Specific activities of GABA-T were measured as OD 340/mg of protein·h.

[11] = Rhynchophorus ferrugineus, 24 h, read-out: LC50

T1 sequence (A0A834I2E4 28-494): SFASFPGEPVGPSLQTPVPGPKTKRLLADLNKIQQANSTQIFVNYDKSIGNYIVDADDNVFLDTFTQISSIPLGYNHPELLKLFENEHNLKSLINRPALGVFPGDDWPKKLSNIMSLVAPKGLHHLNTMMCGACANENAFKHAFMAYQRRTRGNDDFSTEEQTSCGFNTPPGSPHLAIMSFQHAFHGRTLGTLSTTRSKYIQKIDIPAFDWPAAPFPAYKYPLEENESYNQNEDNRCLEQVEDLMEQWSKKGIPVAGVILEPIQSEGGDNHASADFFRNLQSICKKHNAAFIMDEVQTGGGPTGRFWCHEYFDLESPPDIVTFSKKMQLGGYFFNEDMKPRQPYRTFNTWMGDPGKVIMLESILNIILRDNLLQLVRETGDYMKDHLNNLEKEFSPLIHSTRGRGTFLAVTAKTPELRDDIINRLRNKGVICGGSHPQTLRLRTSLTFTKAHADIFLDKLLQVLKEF

| Compound | IC50 AChE in vitro [1] | IC50 ACPs in vivo [2] | IC50 ALPs in vivo [4] [µg/mL] | LC50 [5, 11] [µg/mL] | LD50 [6] | IC50 AChE in vivo [7] | IC50 ALP in vitro [8] [µg/mL] | further results |
| --- | --- | --- | --- | --- | --- | --- | --- | --- |
| O=C(/C=C/c1ccc(O)c(O)c1)O[C@H](Cc1ccc(O)c(O)c1)C(=O)O [Rosmarinic acid] | 119.2 µg/mL and 119 ± 1.14 µg/mL | < 330 µg/mL and 258.7 µg/mL | 256.7 | 1430 (≈ 3960 µM) | 11.8 (11.2–12.5) µg/Larvae | 235.1 µg/mL and 235 ± 1.14 µg/mL | 150 (≈ 415 µM) | IC50 ACPs in vitro [3]: 139.7 µg/mL (≈ 388 µM); IC50 ALPs in vitro [8]: < 200 µg/mL |
| O=C(/C=C/c1ccc(O)c(O)c1/C=C/c1ccc(O)c(O)c1)O[C@H](Cc1ccc(O)c(O)c1)C(=O)O [Salvianolic acid A] | 94 ± 0.94 µg/mL | < 330 µg/mL and 226.3 µg/mL | 213.8 | 1260 (≈ 2550 µM) | 11.3 (10.2–12.47) µg/Larvae | 178.2 µg/mL | 116 (≈ 234 µM) | IC50 AChE in vitro ([1]; listed as salvianolic acid A): 93.6 µg/mL; IC50 ACPs in vitro ([3]; listed as salvianolic acid A): 112.2 µg/mL (≈ 227 µM); LD50 ([6]; listed as salvianolic acid A): 11.3 µg/Larvae; IC50 ALPs in vitro ([8]; listed as salvianolic acid A): < 200 µg/mL |
| COc1ccc(-c2cc(=O)c3c(O)c(OC)c(OC)cc3o2)cc1 [Salvigenin] | 130 ± 1.23 µg/mL |  |  | 1140 (≈ 3480 µM) | 10.8 (10.2–11.5) µg/Larvae | 258 ± 1.23 µg/mL | 123 (≈ 374 µM) | IC50 AChE in vitro ([1]; listed as salvigenin): 129.7 µg/mL; IC50 ACPs in vivo ([2]; listed as salvigenin): < 330 µg/mL and 294.2 µg/mL; IC50 ACPs in vitro ([3]; listed as salvigenin): 151.2 µg/mL (≈ 461 µM); IC50 ALPs in vivo ([4]; listed as salvigenin): 228.7 µg/mL; LD50 ([6]; listed as salvigenin): 10.8 µg/Larvae; IC50 AChE in vivo ([7]; listed as salvigenin): 258.4 µg/mL; IC50 ALPs in vitro ([8]; listed as salvigenin): < 200 µg/mL |
| C[C@H]1[C@H](C)CC[C@]2(C(=O)O)CC[C@]3(C)C(=CC[C@@H]4[C@@]5(C)CC[C@H](O)C(C)(C)[C@@H]5CC[C@]43C)[C@H]12 [Ursolic acid] | 170 ± 1.52 µg/mL |  |  | 1120 (≈ 2450 µM) | 14.9 (13.6–15.4) µg/Larvae | 458 ± 1.52 µg/mL | 141 (≈ 309 µM) | IC50 AChE in vitro ([1]; listed as ursolic acid): 169.5 µg/mL; IC50 ACPs in vivo ([2]; listed as ursolic acid): 392.4 µg/mL; IC50 ACPs in vitro ([3]; listed as ursolic acid): 167.8 µg/mL (≈ 367 µM); IC50 ALPs in vivo ([4]; listed as ursolic acid): 476.9 µg/mL; LD50 ([6]; listed as ursolic acid): 14.9 µg/Larvae; IC50 AChE in vivo ([7]; listed as ursolic acid): 457.8 µg/mL; IC50 ALPs in vitro ([8]; listed as ursolic acid): < 200 µg/mL |
| Salvianolic acid B | 117 ± 1.08 µg/mL | < 330 µg/mL and 182.3 µg/mL | 194.6 |  | 11.1 (10.1–12.18) µg/Larvae | 229.7 µg/mL | 105 | IC50 GABA-T in vitro [9]: 197.2 µg/mL; IC50 AChE in vitro ([1]; listed as salvianolic acid B): 116.7 µg/mL; IC50 ACPs in vitro ([3]; listed as salvianolic acid B): 98.2 µg/mL; IC50 GABA-T in vivo [10]: 324.8 µg/mL; LC50 [5]: 1195 (1121–1278) µg/mL; LD50 ([6]; listed as salvianolic acid B): 11.1 µg/Larvae; IC50 ALPs in vitro ([8]; listed as salvianolic acid B): < 200 µg/mL |
